Results taken from patent publication US20230355647A1, “Marker for determining anti-cancer effects of mitochondrial oxidative phosphorylation pathway inhibitor” (NANJING SHIJIANG MEDICINE TECHNOLOGY CO., LTD, priority 2020, published 2023).

Legend:
U-87 MG = test: Cell viability (CellTiter-Glo), U-87 MG; format: cell-based; details: Homo sapiens; U-87 MG cell line, 3-4 days of culture
Method: (§1) Cell viability was detected using the Promega CellTiter-Glo kit, the kit reflected cell viability by directly measuring intracellular ATP content. The inhibitory effect (IC50 value) of Gboxin, a mitochondrial oxidative phosphorylation pathway inhibitor, on different tumor cell lines was tested in the Example. The name, source, and culture condition of each tumor cell line were as follows:
Cell line U-87 MG (ATCC, No. HTB-14) was cultured in 10% fetal bovine serum-containing EMEM medium (+P/S).
(§2) The above tumor cells were cultured in the relevant medium (+P/S), and incubated for 3 h, then the gradient diluted Gboxin was added, and IC50 (50% inhibiting concentration) was measured after 3-4 days of culture.

PC-3 = test: Cell viability (CellTiter-Glo), PC-3; format: cell-based; details: Homo sapiens; PC-3 cell line, 3-4 days of culture
Method: as §1
Cell line PC-3 (ATCC, No. CRL-1435) was cultured in 10% fetal bovine serum-containing F-12K medium (+P/S).
as §2

22RV1 = test: Cell viability (CellTiter-Glo), 22RV1; format: cell-based; details: Homo sapiens; 22RV1 cell line, 3-4 days of culture
Method: as §1
Cell line 22RV1 (ATCC, No. CRL-2505) was cultured in 10% fetal bovine serum-containing RPMI1640 medium (+P/S).
as §2

GAK = test: Cell viability (CellTiter-Glo), GAK; format: cell-based; details: GAK cell line, 3-4 days of culture
Method: as §1
Cell line GAK (JCRB, No. JCRB0180) was cultured in 20% fetal bovine serum-containing Ham's F12 medium (+P/S).
as §2

NCI-H1651 = test: Cell viability (CellTiter-Glo), NCI-H1651; format: cell-based; details: Homo sapiens; NCI-H1651 cell line, 3-4 days of culture
Method: as §1
Cell line NCI-H1651 (ATCC, No. CRL-5884) was cultured in 10% fetal bovine serum-containing ACL-4 medium (+P/S).
as §2

CHL-1 = test: Cell viability (CellTiter-Glo), CHL-1; format: cell-based; details: Homo sapiens; CHL-1 cell line, 3-4 days of culture
Method: as §1
Cell line CHL-1 (ATCC, No. CRL-9446) was cultured in 10% fetal bovine serum-containing DMEM medium (+P/S).
as §2

G-401 = test: Cell viability (CellTiter-Glo), G-401; format: cell-based; details: Homo sapiens; G-401 cell line, 3-4 days of culture
Method: as §1, with “follows: Cell line G-401 (ATCC, No. CRL-1441) was cultured in 10% fetal bovine serum-containing McCoy's 5a medium (+P/S). […] Cell viability was detected using the Promega CellTiter-Glo kit, the kit reflected cell viability by directly measuring intracellular ATP content.” for “follows:”

NCI-H2081 = test: Cell viability (CellTiter-Glo), NCI-H2081; format: cell-based; details: Homo sapiens; NCI-H2081 cell line, 3-4 days of culture
Method: as §1
Cell line NCI-H2081 (ATCC, No. CRL-5920) was cultured in 5% fetal bovine serum-containing HITES medium (+P/S).
as §2

[1] = system: NCI-H82 cell with overexpression of NNMT protein and/or knockdown of DNMT1 expression; test: Sensitivity of NCI-H82 after NNMT overexpression and/or DNMT1 knockdown, intracellular ATP detection; format: cell-based, human; details: FIG. 21, FIG. 22
From the text: The NCI-H82 cell overexpressing NNMT protein was obtained by inserting the NNMT gene into NCI-H82 cell using a viral vector. The expression of DNMT1 in NCI-H82 cells was knocked down using shRNA transfection. The changes in sensitivity of cells to mitochondrial oxidative phosphorylation pathway inhibitors (Gboxin, Oligomycin A) was investigated using intracellular ATP detection methods after overexpression of NNMT protein and/or knockdown of DNMT1 expression. The experiment result was shown in FIG. 21 and FIG. 22, wherein, “Vector” referred to NCI-H82 cell transfected with empty virus as control group.

CCRF-CEM = test: Cell viability (CellTiter-Glo), CCRF-CEM; format: cell-based; details: Homo sapiens; CCRF-CEM cell line, 3-4 days of culture
Method: as §1
Cell line CCRF-CEM (ATCC, No. CCL-119) was cultured in 10% fetal bovine serum-containing RPMI1640 medium (+P/S).
as §2

GB-1 = test: Cell viability (CellTiter-Glo), GB-1; format: cell-based; details: Homo sapiens; GB-1 cell line, 3-4 days of culture
Method: as §1
Cell line GB-1 (JCRB, No. IFO50489) was cultured in 10% fetal bovine serum-containing DMEM medium (+P/S).
as §2
Cell viability was detected using the Promega CellTiter-Glo kit, the kit reflected cell viability by directly measuring intracellular ATP content. In this experiment, the IC50 values of Oligomycin A or IACS-010759, a mitochondrial oxidative phosphorylation pathway inhibitor, on different tumor cells was determined.
The different tumor cells were cultured in the relevant medium (+P/S) as shown in Example 2, and incubated for 3 h, then the gradient diluted Oligomycin A or IACS-010759 was added respectively, and IC50 (50% inhibiting concentration) of Oligomycin A or IACS-010759 on different tumor cells was measured after 3-4 days of culture.

OCI-AML-3 = test: Cell viability (CellTiter-Glo), OCI-AML-3; format: cell-based; details: Homo sapiens; OCI-AML-3 cell line, 3-4 days of culture
Method: as §1
Cell line OCI-AML-3 (DSMZ, No. ACC-582) was cultured in 20% fetal bovine serum-containing RPMI1640 medium (+P/S).
as §2

Jurkat, Clone E6-1 = test: Cell viability (CellTiter-Glo), Jurkat, Clone E6-1; format: cell-based; details: Homo sapiens, Clone E6-1 cell line, 3-4 days of culture
Method: as §1
Cell line Jurkat, Clone E6-1 (ATCC, No. TIB-152) was cultured in 10% fetal bovine serum-containing RPMI1640 medium (+P/S).
as §2

MIA PaCa-2 = test: Cell viability (CellTiter-Glo), MIA PaCa-2; format: cell-based; details: Homo sapiens; MIA PaCa-2 cell line, 3-4 days of culture
Method: as §1
Cell line MIA PaCa-2 (ATCC, No. CRL-1420) was cultured in 10% fetal bovine serum-containing DMEM medium (+P/S).
as §2

CCc1n(CC(=O)O[C@@H]2C[C@H](C)CC[C@H]2C(C)C)c2ccccc2[n+]1C.[Cl-] [Gboxin]
IC50 (U-87 MG): 12.3 µM
IC50 (PC-3): 21.3 µM
IC50 (22RV1): 2.53 µM
IC50 (GAK): 7.05 µM
IC50 (NCI-H1651): 22.4 µM
IC50 (CHL-1): 7.68 µM
IC50 (G-401): 0.777 µM
IC50 (NCI-H2081): 13.9 µM
sensitivity of NCI-H82 cell to the inhibitor ([1]; DNMT1 expression knocked down (sh-DNMT1 #1 or sh-DNMT1 #2) vs Vector): decreased
sensitivity of NCI-H82 tumor cells to the inhibitor ([1]; NNMT overexpressed and DNMT1 knocked down simultaneously (ov-NNMT/sh-DNMT1 #1 and #2)): decreased more significantly
sensitivity of NCI-H82 cell to the inhibitor ([1]; NNMT protein overexpressed alone (ov-NNMT) vs Vector): decreased
IC50 (CCRF-CEM): 2.59 µM
IC50 (GB-1): > 30 µM
IC50 (OCI-AML-3): 1.46 µM
IC50 (Jurkat, Clone E6-1): 3.51 µM
IC50 (MIA PaCa-2): 2.57 µM
